From US8481495B2 (TetraLogic Pharmaceuticals Corporation, priority 2009, dated 2013)

What was measured:
XIAP BIR-3 = molecular target: T1, XIAP BIR-3 (Homo sapiens, UniProt P98170); assay: Fluorescence polarization binding to XIAP BIR-3 with labeled peptide AbuRPF-K(5-Fam)-NH2; conditions: XIAP BIR-3, 40 nM BIR3, 5 nM labeled peptide, 15 min RT, pH 7.5; read-out: XIAP, nM (binding affinity KD, as range)
T1 construct: 40 nM of the respective IAP BIR3
Experimental: (§1) The binding affinities of the compounds are reported as a KD value (μM). Briefly, various concentrations of test peptides were mixed with 5 nM of the fluorescently labeled peptide (i.e., a mutated N-terminal Smac peptide-AbuRPF-K(5-Fam)-NH2) and 40 nM of the respective IAP BIR3 for 15 min at RT in […] of 0.1M Potassium Phosphate buffer, pH 7.5 containing […] bovine g-globulin. Following incubation, the polarization values (mP) were measured on a Victor2V™ (available from PerkinElmer® Life Sciences) using a 485 nm excitation filter and a 520 nm emission filter. The reported binding affinities (KD values) are supplied as ranges (A=<0.1 μM, B=0.1 μM to 1 μM, C=>1 μM to 10 μM, D=>10 μM).

cIAP-1 BIR-3 = molecular target: T2, cIAP-1 BIR-3 (Homo sapiens, UniProt Q13490); assay: Fluorescence polarization binding to cIAP-1 BIR-3 with labeled peptide AbuRPF-K(5-Fam)-NH2; conditions: cIAP-1 BIR-3, 40 nM BIR3, 5 nM labeled peptide, 15 min RT, pH 7.5; read-out: cIAP1, nM (binding affinity KD, as range)
T2 construct: 40 nM of the respective IAP BIR3
Experimental: as §1

SK-OV-3 cells = assay: MTT cell growth inhibition assay in ovarian cancer cell line SK-OV-3; type: cell-based; conditions: Homo sapiens, 72 hrs incubation, read-out: SKOV3, nM (CC50, concentration giving 50% cell survival, as range)
Experimental: Compounds of the invention also were tested for their ability to inhibit the growth of an ovarian cancer cell line, SK-OV-3. A known assay previously used for measuring cell growth (as described in Hansen, M. B., Nielsen, S. E., and Berg, K. (1989) J. Immunol. Methods 119, 203-210 and incorporated herein by reference in its entirety) was used. Briefly, SK-OV-3 cells are seeded in 96-well plates in McCoy's medium containing 10% fetal bovine serum albumin (5,000 per well) and incubated overnight at 37° C. The next day, test compounds are added at various concentrations (0.003-10 μM) and the plates are incubated at 37° C. for an additional 72 hrs. This incubation time was considered to be optimal for measuring inhibitory effects of the different compounds tested. 50 microliters of 5 mg/mL MTT reagent is added to each well and the plates are incubated at 37° C. for another three (3) hours. At the end of the three (3) hour incubation period, 50 microliters of DMSO is added to each well to dissolve cells and the optical density (OD) of the wells is measured with a microplate reader (Victor^2 1420™, Wallac, Finland) at 535 nm. Cell survival (CS) was calculated using the following equation: CS=(OD treated well/mean OD control wells)×100%.
The CC50 (reported in the following tables), is defined as the drug concentration that results in 50% cell survival (CS), and is derived by calculating the point where the dose-response curve crosses the 50% CS point using GraphPad Prism® graphing software. The reported CC50 values are supplied as ranges (A=<0.1 μM, B=0.1 μM to 1 μM, C=>1 μM to 10 μM, D=>10 μM).

T2 sequence (Q13490 253-363 limits assumed): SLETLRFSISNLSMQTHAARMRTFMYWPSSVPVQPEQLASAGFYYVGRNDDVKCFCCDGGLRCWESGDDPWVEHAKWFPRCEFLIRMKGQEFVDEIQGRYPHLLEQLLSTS
T1 sequence (P98170 241-356 limits assumed): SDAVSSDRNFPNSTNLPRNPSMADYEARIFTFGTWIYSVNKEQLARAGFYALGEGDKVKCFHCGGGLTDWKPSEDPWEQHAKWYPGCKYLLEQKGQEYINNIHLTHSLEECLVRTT

Row | SMILES | Kd (XIAP BIR-3) [nM] | Kd (cIAP-1 BIR-3) [nM] | CC50 (SK-OV-3 cells) [nM]
1 | CN[C@@H](C)C(=O)N[C@H](C(=O)N1CC[C@@H]2[C@H]1[C@@H](C(=O)NCCc1ccccc1)CN2S(C)(=O)=O)C1CCCCC1 [Example 16, 4-[2-Cyclohexyl-2-(2-methylamino-propionylamino)-acetyl]-1-methanesulfonyl-octahydro-pyrrolo[3,2-b]pyrrole-3-carboxylic acid-phenethyl-amide] | < 100 | < 100 | 100 to 1000
2 | CN[C@@H](C)C(=O)N[C@H](C(=O)N1CC[C@@H]2[C@H]1[C@@H](C(=O)Nc1cccc3ccccc13)CN2S(C)(=O)=O)C1CCCCC1 [Example 17, 4-[2-Cyclohexyl-2-(2-methylamino-propionylamino)-acetyl]-1-methanesulfonyl-octahydro-pyrrolo[3,2-b]pyrrole-3-carboxylic acid naphthalen-1-ylamide] | < 100 | < 100 | < 100
3 | CN[C@@H](C)C(=O)N[C@H](C(=O)N1CC[C@@H]2[C@H]1[C@@H](C(=O)Nc1ccc3ccccc3c1)CN2S(C)(=O)=O)C1CCCCC1 [Example 18, 4-[2-Cyclohexyl-2-(2-methylamino-propionylamino)-acetyl]-1-methanesulfonyl-octahydro-pyrrolo[3,2-b]pyrrole-3-carboxylic acid naphthalen-2-ylamide] | 100 to 1000 | < 100 | < 100
4 | CN[C@@H](C)C(=O)N[C@H](C(=O)N1CC[C@@H]2[C@H]1[C@@H](C(=O)NCC1CCCCC1)CN2S(C)(=O)=O)C1CCCCC1 [Example 19, 4-[2-Cyclohexyl-2-(2-methylamino-propionylamino)-acetyl]-1-methanesulfonyl-octahydro-pyrrolo[3,2-b]pyrrole-3-carboxylic acid cyclohexylmethyl-amide] | < 100 | < 100 | < 100
5 | CN[C@@H](C)C(=O)N[C@H](C(=O)N1CC[C@@H]2[C@H]1[C@@H](C(=O)NCc1ccccc1)CN2S(C)(=O)=O)C(C)(C)C [Example 20, 4-[3,3-Dimethyl-2-(2-methylamino-propionylamino)-butyryl]-1-methanesulfonyl-octahydro-pyrrolo[3,2-b]pyrrole-3-carboxylic acid benzylamide] | < 100 | < 100 | < 100
6 | CN[C@@H](C)C(=O)N[C@H](C(=O)N1CC[C@@H]2[C@H]1[C@@H](C(=O)NCc1ccc(F)cc1)CN2S(C)(=O)=O)C(C)(C)C [Example 21, 4-[3,3-Dimethyl-2-(2-methylamino-propionylamino)-butyryl]-1-methanesulfonyl-octahydro-pyrrolo[3,2-b]pyrrole-3-carboxylic acid 4-fluoro-benzylamide] | < 100 | < 100 | < 100
7 | CN[C@@H](C)C(=O)N[C@H](C(=O)N1CC[C@@H]2[C@H]1[C@@H](C(=O)Nc1ccccc1)CN2S(C)(=O)=O)C(C)(C)C [Example 22, 4-[3,3-Dimethyl-2-(2-methylamino-propionylamino)-butyryl]-1-methanesulfonyl-octahydro-pyrrolo[3,2-b]pyrrole-3-carboxylic acid phenylamide] | < 100 | < 100 | < 100
8 | CN[C@@H](C)C(=O)N[C@H](C(=O)N1CC[C@@H]2[C@H]1[C@@H](C(=O)N[C@H]1CCCc3ccccc31)CN2S(C)(=O)=O)C(C)(C)C [Example 23, 4-[3,3-Dimethyl-2-(2-methylamino-propionylamino)-butyryl]-1-methanesulfonyl-octahydro-pyrrolo[3,2-b]pyrrole-3-carboxylic acid (1,2,3,4-tetrahydro-naphthalen-1-yl)-amide] | < 100 | < 100 | 100 to 1000
9 | CN[C@@H](C)C(=O)N[C@H](C(=O)N1CC[C@@H]2[C@H]1[C@@H](C(=O)Nc1cccc3ccccc13)CN2S(C)(=O)=O)C(C)(C)C [Example 24, 4-[3,3-Dimethyl-2-(2-methylamino-propionylamino)-butyryl]-1-methanesulfonyl-octahydro-pyrrolo[3,2-b]pyrrole-3-carboxylic acid naphthalen-1-ylamide] | < 100 | < 100 | < 100
10 | CN[C@@H](C)C(=O)N[C@H](C(=O)N1CC[C@@H]2[C@H]1[C@@H](C(=O)Nc1ccc3ccccc3c1)CN2S(C)(=O)=O)C(C)(C)C [Example 25, 4-[3,3-Dimethyl-2-(2-methylamino-propionylamino)-butyryl]-1-methanesulfonyl-octahydro-pyrrolo[3,2-b]pyrrole-3-carboxylic acid naphthalen-2-ylamide] | < 100 | < 100 | < 100

More lines, main results first:

Row | Kd (XIAP BIR-3) [nM] | Kd (cIAP-1 BIR-3) [nM] | SMILES | CC50 (SK-OV-3 cells) [nM]
11 | < 100 | < 100 | CN[C@@H](C)C(=O)N[C@H](C(=O)N1CC[C@@H]2[C@H]1[C@@H](C(=O)Nc1cc(C)nn1-c1ccccc1)CN2S(C)(=O)=O)C(C)(C)C [Example 26, 4-[3,3-Dimethyl-2-(2-methylamino-propionylamino)-butyryl]-1-methanesulfonyl-octahydro-pyrrolo[3,2-b]pyrrole-3-carboxylic acid (5-methyl-2-phenyl-2H-pyrazol-3-yl)-amide] | 100 to 1000
12 | < 100 | < 100 | CN[C@@H](C)C(=O)N[C@H](C(=O)N1CC[C@@H]2[C@H]1[C@@H](C(=O)N[C@@H]1CCCc3ccccc31)CN2S(C)(=O)=O)C(C)(C)C [Example 27, 4-[3,3-Dimethyl-2-(2-methylamino-propionylamino)-butyryl]-1-methanesulfonyl-octahydro-pyrrolo[3,2-b]pyrrole-3-carboxylic acid (1,2,3,4-tetrahydro-naphthalen-1-yl)-amide] | < 100
13 | < 100 | < 100 | CN[C@@H](C)C(=O)N[C@H](C(=O)N1CC[C@@H]2[C@H]1[C@@H](C(=O)N[C@@H](C)C1CCCCC1)CN2S(C)(=O)=O)C(C)(C)C [Example 28, 4-[3,3-Dimethyl-2-(2-methylamino-propionylamino)-butyryl]-1-methanesulfonyl-octahydro-pyrrolo[3,2-b]pyrrole-3-carboxylic acid (1S-cyclohexyl-ethyl)-amide] | < 100
14 | 1000 to 10000 | < 100 | CN[C@@H](C)C(=O)N[C@H](C(=O)N1CC[C@@H]2[C@H]1[C@@H](C(=O)N[C@H](C)C1CCCCC1)CN2S(C)(=O)=O)C(C)(C)C [Example 29, 4-[3,3-Dimethyl-2-(2-methylamino-propionylamino)-butyryl]-1-methanesulfonyl-octahydro-pyrrolo[3,2-b]pyrrole-3-carboxylic acid (1R-cyclohexyl-ethyl)-amide] | 1000 to 10000
15 | 1000 to 10000 | < 100 | CN[C@@H](C)C(=O)N[C@H](C(=O)N1CC[C@@H]2[C@H]1[C@@H](C(=O)N[C@@H](Cc1ccccc1)C(=O)O)CN2S(C)(=O)=O)C1CCCCC1 [Example 30, 2-({4-[2-Cyclohexyl-2-(2-methylamino-propionylamino)-acetyl]-1-methanesulfonyl-octahydro-pyrrolo[3,2-b]pyrrole-3-carbonyl}-amino)-3-phenyl-propionic acid] | 1000 to 10000
16 | 100 to 1000 | < 100 | CN[C@@H](C)C(=O)N[C@H](C(=O)N1CC[C@H]2NC[C@H](C(=O)Nc3ccccc3)[C@H]21)C1CCCCC1 [Example 31] | 100 to 1000
17 | 100 to 1000 | < 100 | CN[C@@H](C)C(=O)N[C@H](C(=O)N1CC[C@H]2NC[C@@H](C(=O)Nc3ccccc3)[C@H]21)C1CCCCC1 [Example 32] | 1000 to 10000
18 | < 100 | < 100 | CNC(C)C(=O)NC(C(=O)N1CCC2C1C(C(=O)NC1CCCc3ccccc31)CN2C(=O)C1CC1)C1CCCCC1 (stereo not drawn) [Example 33, 4-[2-Cyclohexyl-2-(2-methylamino-propionylamino)-acetyl]-1-cyclopropanecarbonyl-octahydro-pyrrolo[3,2-b]pyrrole-3-carboxylic acid (1,2,3,4-tetrahydro-naphthalen-1-yl)-amide] | < 100
